Tests used:
children with autism = conditions: cited from earlier work
[1] = test system: methionine cycle function; conditions: for improvement with known intermediates and support supplements of the methionine cycle: Case 3, supplements taken together in the month before liposomal glutathione; for blood pressure after initiating the therapies / how the patient felt a few days after initiating the therapies: in vivo
Source text: The elevation of histamine is also an indicator of decreased methylation function as it is inactivated by histamine-methyl transferase.
During the month prior to evaluation the MM initiated therapy with SAMe, folate, betaine (trimethyl glycine), N-acetylcysteine and B12 by injection and oral glutathione (neat, not in the form of the invention).

[2] = 3 grams by oral ingestion; cited from earlier work
children = experiment: Practical experience and clinical observation of children using methylcobalamin by injection; assay type: in vivo, human
[3] = 800 μg folinic acid and 1000 mg betaine twice daily, 3 months
[4] = after a month of injection therapy
[5] = second intervention, injectable methylcobalamin added to folinic acid and betaine

how the patient felt a few days after initiating the therapies [1]	Compound	improvement with known intermediates and support supplements of the methionine cycle [1]	blood pressure after initiating the therapies [1]	further results
	Nc1nc(=O)c2c([nH]1)NCC(CNc1ccc(C(=O)N[C@@H](CCC(=O)O)C(=O)O)cc1)N2C=O (mixture of isomers) [folinic acid]			methionine cycle metabolites versus concentrations in controls (children with autism; [3]): effective in normalizing; total GSH (tGSH) or GSSG concentrations or tGSH:GSSG ratio (children with autism; [3]): improved but did not normalize
felt worse	CC(=O)N[C@@H](CS)C(=O)O [N-acetylcysteine]	did not improve	170/120	
felt worse	C[N+](C)(C)CC(=O)O [betaine, trimethyl glycine]		170/120	
felt worse	Nc1nc2ncc(CNc3ccc(C(=O)N[C@@H](CCC(=O)O)C(=O)O)cc3)nc2c(=O)[nH]1 [folic acid]	did not improve	170/120	
felt worse	N[C@@H](CCC(=O)N[C@@H](CS)C(=O)NCC(=O)O)C(=O)O [glutathione, gamma-glutamyl-cysteinyl-glycine]	did not improve	170/120	plasma glutathione levels [2]: does not elevate
	C/C1=C2/[N-][C@H]([C@H](CC(N)=O)[C@@]2(C)CCC(=O)NC[C@@H](C)OP(=O)([O-])O[C@H]2[C@@H](O)[C@@H](n3cnc4cc(C)c(C)cc43)O[C@@H]2CO)[C@]2(C)N=C(/C(C)=C3N=C(/C=C4N=C1[C@@H](CCC(N)=O)C\4(C)C)[C@@H](CCC(N)=O)[C@]\3(C)CC(N)=O)[C@@H](CCC(N)=O)[C@]2(C)CC(N)=O.[CH3-].[Co+3] [methylcobalamin]			irritability (children; many children, methylcobalamin by injection): substantially increased irritability; SAH (children; methylcobalamin by itself, preliminary data): can cause an increase; GSSG (children with autism; [4]): decreased; level of total GSH (tGSH) (children with autism; [4]): increased; tGSH:GSSG ratio (glutathione redox profile) (children with autism; [4]): normalization; speech and cognition (children with autism; injection therapy, children with autism): improvement in speech and cognition; concentration of adenosine and GSSG (children with autism; [5]): further decrease; concentrations of methionine, cysteine, tGSH and SAM:SAH and tGSH:GSSG ratios (children with autism; [5]): further increase
felt worse	cyanocobalamin [B12 (cyanocobalamin)]	did not improve	170/120	

Compound	how the patient felt a few days after initiating the therapies [1]	improvement with known intermediates and support supplements of the methionine cycle [1]	blood pressure after initiating the therapies [1]	further results
C[S+](CC[C@H](N)C(=O)[O-])C[C@H]1O[C@@H](n2cnc3c(N)ncnc32)[C@H](O)[C@@H]1O (stereo partly shown) [SAMe, S-Adenosylmethionine]	felt worse	did not improve	170/120	
